Data from patent publication US12012622B1, “Paenibacillus pabuli-derived enzyme capable of producing galacto-oligosaccharide, and method for producing galacto-oligosaccharide” (GODO SHUSEI CO., LTD., priority 2018, dated 2024).
Marks after values point to notes of the source that are not given here.

Columns and labels:
[1] = test system: Paenibacillus pabuli lactase (enzyme of Example 1, SEQ ID NO: 1); assay: Analysis of reaction rate parameter with ONPG as substrate (Validation 1); assay type: biochemical; details: substrate ONPG 0.075 to 7.5 mM; 40° C., 10 minutes; 100 mM sodium phosphate (pH 6.5)
From the text: After the production of each enzyme, the transformant was ultrasonically disrupted to give a cell disruption liquid. […] The prepared cell disruption liquids were each ultra-filtered as necessary to concentrate the enzyme. The concentrated disruption liquid of the enzyme consisting of an amino acid sequence set forth in SEQ ID NO: 1 was defined as Example 1, and the concentrated disruption liquid of the enzyme consisting of an amino acid sequence set forth in SEQ ID NO: 2 was defined as Example 2.
The reaction rate parameter when using the ONPG of the enzyme of Example 1 as the substrate was determined by the following method. The specific activity (μmol/mg protein/min) upon reaction at a substrate concentration of 0.075 to 7.5 mM at 40° C. for 10 minutes was calculated, and the specific activity was plotted to each substrate concentration. At this time, 100 mM sodium phosphate (pH 6.5) was used as the buffer. From the substrate saturation curve measured by the above method, following the Michaelis-Menten equation, Km (Michaelis-Menten constant), which indicates the affinity between the enzyme and the substrate, and V. (maximum velocity), which indicates how many micromoles of substrate is catalyzed in 1 minute per mg of the enzyme, were calculated.

[2] = test system: Bacillus circulans lactase β-galII (main enzyme of BIOLACTA); details: substrate ONPG; cited from Non-Patent Literature 1; cited from earlier work

In the case of O=[N+]([O-])c1ccccc1O[C@@H]1O[C@H](CO)[C@H](O)[C@H](O)[C@H]1O [ONPG, o-nitrophenyl-β-galactopyranoside], the Km [1] is given as 0.36 mM, the Vmax [1] is given as 55.0 units/mg protein and the Km [2] is given as 10 mM. The Vmax [2] was 56.0* units/mg protein.
